Measurements: patent US8530507B2, “Use of levo-ornidazole in the preparation of anti-anaerobic bacteria infection drugs” (priority 2005, dated 2013)
Like-named read-outs stand apart in the source and are kept apart here.

What was measured:
[1] = Acute toxicology test, LD50 in mice (Bliss method); type: in vivo; settings: both sexes, Kunming, mouse, in vivo, read-out: 95% confidence interval (CI) of LD50
Procedure: Kunming mice, half males and half females, with body weights of 18˜22 g, were administered the testing drug solution by injection 8 hours after fasting. The death status of animals was consecutively observed for 14 days after administration.

[2] = In vivo pharmacokinetics in Beagle dogs
Procedure: The clinical dose of ornidazole is 500 mg for human. By calculating, based on body surface area, the pharmacokinetic experimental dose in Beagle dogs was 13 mg/kg in vivo. Six adult beagle dogs (half males and half females, body weight of 9˜11.5 kg) were randomly divided into three groups. According to crossover design, intravenous injection of L-, D-, and racemic ornidazole were administered in turn to each dog every other week (with one week washout period in between). 2 ml of blood was collected from the vein located at the forelimb of the dogs before drug administration and 0.083, 0.5, 1.0, 2.0, 4.0, 6.0, 8.0, 12.0, 16.0, 24.0 hours after drug administration, which was then placed in the heparinized tube, followed by centrifugation to obtain the plasma. Plasma concentration of drug was determined by HPLC. Pharmacokinetics parameters were estimated using the non-compartmental models. The corresponding pharmacokinetics parameters were obtained by BAPP2.0 using the data of plasma concentration of blood with time obtained above.

mice = settings: mouse, in vivo, 40 mg/kg
Procedure: The same volume of 0.9% sodium chloride injection containing propylene glycol was administered in the vehicle control group. 30 minute after drug administration, 40 mg/kg of sodium thiopental was administered to mice by intraperitoneal injection. The time for the loss of righting reflex and the time for the recovery were recorded. The injection volume was 0.2 ml/10 g, the administration rate was 0.2 ml/10 sec.

[3] = test system: bacteroides (including Escherichia coli) infection; test: Abdominal infection model in mice, ED50; type: in vivo, Kunming white mice; settings: death observed 7 days; for 95% CI of ED50: oral gavage twice
Procedure: (§1) Kunming white mice, body weight of 20±2 g, half males and half females. 10 mice in each dose group with half females and half males. Abdominal infection models were prepared with the entire animal (mice) and treatments were conducted with the testing drugs. The therapeutical efficacy was observed and expressed as ED50 (half effective dose). Drugs were administered twice by oral gavage (administered immediately after infection for one and 6 hours after infection for the other one). The death status of animals was observed consecutively for seven days after infection and being treated.

[4] = test system: peptostreptococcus (including Escherichia coli); test: Abdominal infection model in mice, ED50; type: in vivo, Kunming white mice; settings: death observed 7 days; for 95% CI of ED50: oral gavage twice
Procedure: as §1

[5] = beagle dogs, individual intravenous dose 13 mg/kg, plasma
[6] = oral gavage twice (immediately and 6 hours after infection)

Structure (SMILES): Cc1ncc([N+](=O)[O-])n1CC(O)CCl (racemic) [racemic ornidazole, ornidazole]
- LD50 at 14 days ([1]; intravenous injection): 272 to 346 mg/kg
- LD50 at 14 days ([1]; ip, intraperitoneal injection): 1030 to 1210 mg/kg
- LD50 at 14 days ([1]; oral gavage): 674 to 878 mg/kg
- half-life ([2]; both sexes, dog, beagle dogs, individual intravenous dose 13 mg/kg, plasma, HPLC, non-compartmental, read-out: t1/2 (half life) (converted)): 5.55 ± 3.12 h
- AUC(0-t) ([2]; both sexes, dog, beagle dogs, individual intravenous dose 13 mg/kg, plasma, read-out: AUC0-t (area under curve)): 76700 ± 10800 ng·h/mL
- clearance ([2]; both sexes, dog, beagle dogs, individual intravenous dose 13 mg/kg, plasma, read-out: Cl (clearance) (converted)): 23.8 mL/min
- MRT ([2]; both sexes, dog, beagle dogs, individual intravenous dose 13 mg/kg, plasma, read-out: MRT (mean retention time of drugs)): 8.01 ± 3.42 h
- Vd ([2]; both sexes, dog, beagle dogs, individual intravenous dose 13 mg/kg, plasma, read-out: Vβ (elimination volume of distribution)): 11.2 ± 3.96 L
- duration of sleeping induced by sodium thiopental, compared with the vehicle control group (mice): significantly extended
- ED50 ([3]; Bacteroides, oral gavage twice (immediately and 6 hours after infection), read-out: ED50 (half effective dose)): 39.9 mg/kg
- 95% CI of ED50 [3]: 51.9˜30.7 mg/kg
- ED50 ([4]; Peptostreptococcus, oral gavage twice (immediately and 6 hours after infection), read-out: ED50 (half effective dose)): 49.1 mg/kg
- 95% CI of ED50 [4]: 61.1˜39.4 mg/kg

Structure (SMILES): Cc1ncc([N+](=O)[O-])n1C[C@H](O)CCl [L-ornidazole, 1-(3-chloro-2-S-(−)-hydroxypropyl)-2-methyl-5-nitroimidazole]
- AUC0-t (area under curve) [2, 5]: 90940 ± 8330 ng·h/mL
- Cl (clearance) [2, 5]: 1.22 ± 0.13 L/h
- MRT (mean retention time of drugs) [2, 5]: 10.06 ± 1.57 h
- Vβ (elimination volume of distribution) [2, 5]: 12.23 ± 1.84 L
- t1/2 (half life) ([2]; beagle dogs, individual intravenous dose 13 mg/kg, plasma, HPLC, non-compartmental): 6.97 ± 1.09 h
- in vivo transformation of enantiomers between L- and D-ornidazole ([2]; dog, in vivo, iv): not occurred
- ED50 (half effective dose) [3, 6]: 31.0 mg/kg
- 95% CI of ED50 [3]: 43.3˜22.2 mg/kg
- ED50 (half effective dose) [4, 6]: 42.0 mg/kg
- 95% CI of ED50 [4]: 50.9˜34.6 mg/kg
